Measured values: patent US8772319B2 (priority 2004, dated 2014)
Where a name gives a salt, the structure may show the parent alone. Read-outs that look alike come from different tables or passages of the source.

Key:
5-HT2C receptor = molecular target: T1, 5-HT2C receptor (Rattus norvegicus, UniProt P08909); experiment: 5-HT2C receptor binding, NIH-3T3-P cells, [3H]mesulergine
T1 construct: expressed in transfected cells; host or cells: NIH-3T3-P cells
T1 sequence (P08909 33-460): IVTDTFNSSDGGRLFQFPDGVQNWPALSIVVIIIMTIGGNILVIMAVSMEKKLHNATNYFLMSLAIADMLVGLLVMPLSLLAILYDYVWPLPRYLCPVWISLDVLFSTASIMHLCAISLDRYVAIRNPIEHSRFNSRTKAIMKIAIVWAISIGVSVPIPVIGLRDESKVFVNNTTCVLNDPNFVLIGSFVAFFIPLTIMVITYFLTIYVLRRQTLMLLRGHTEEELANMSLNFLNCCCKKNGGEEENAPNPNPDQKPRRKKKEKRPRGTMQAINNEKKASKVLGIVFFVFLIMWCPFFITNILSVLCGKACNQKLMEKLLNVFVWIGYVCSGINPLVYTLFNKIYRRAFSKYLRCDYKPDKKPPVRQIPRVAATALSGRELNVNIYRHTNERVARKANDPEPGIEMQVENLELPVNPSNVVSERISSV

D2 receptor [1] = molecular target: T2, D2 receptor (Homo sapiens, UniProt P14416); experiment: D2 receptor binding, CHOp- cells, [3H]YM-09151-2
T2 construct: expressed in transfected cells; host or cells: CHOp- cells (CHOp-D2)
T2 sequence (P14416 whole entry): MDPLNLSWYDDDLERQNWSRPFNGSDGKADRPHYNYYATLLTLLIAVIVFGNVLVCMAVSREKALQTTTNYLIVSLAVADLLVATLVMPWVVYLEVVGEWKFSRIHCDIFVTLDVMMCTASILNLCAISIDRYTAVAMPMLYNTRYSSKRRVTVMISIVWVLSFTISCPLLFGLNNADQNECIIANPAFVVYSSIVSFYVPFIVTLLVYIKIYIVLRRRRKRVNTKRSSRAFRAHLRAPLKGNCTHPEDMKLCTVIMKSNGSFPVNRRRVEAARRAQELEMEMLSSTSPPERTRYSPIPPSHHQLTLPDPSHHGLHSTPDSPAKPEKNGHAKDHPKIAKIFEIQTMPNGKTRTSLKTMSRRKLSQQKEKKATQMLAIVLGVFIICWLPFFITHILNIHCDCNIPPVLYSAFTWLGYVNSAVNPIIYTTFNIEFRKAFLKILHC

5-HT2A receptor = molecular target: T3, 5-HT2A receptor (Rattus norvegicus, UniProt P14842); experiment: 5-HT2A receptor binding, NIH-3T3-GF6 cells, [3H]ketanserin
T3 construct: expressed in transfected cells; host or cells: NIH-3T3-GF6 cells
T3 sequence (P14842 whole entry): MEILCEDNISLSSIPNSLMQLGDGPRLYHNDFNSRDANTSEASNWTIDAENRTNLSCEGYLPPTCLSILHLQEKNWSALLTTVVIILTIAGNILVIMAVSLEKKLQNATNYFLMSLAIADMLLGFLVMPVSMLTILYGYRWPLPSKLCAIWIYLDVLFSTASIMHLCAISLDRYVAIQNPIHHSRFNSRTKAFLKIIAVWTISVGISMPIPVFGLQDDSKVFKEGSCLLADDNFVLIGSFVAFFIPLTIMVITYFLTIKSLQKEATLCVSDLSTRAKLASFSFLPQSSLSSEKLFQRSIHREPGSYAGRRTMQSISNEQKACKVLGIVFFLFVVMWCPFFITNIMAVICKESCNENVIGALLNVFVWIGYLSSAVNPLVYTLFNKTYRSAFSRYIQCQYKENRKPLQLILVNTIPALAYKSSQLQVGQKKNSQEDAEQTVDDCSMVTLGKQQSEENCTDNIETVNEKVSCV

[2] = molecular target: T4, human dopamine transporter (hDAT) (Homo sapiens, UniProt Q01959); experiment: biochemical; assay type: binding; conditions: for Binding Ratios NET/DAT / Binding Ratios SERT/DAT: Table 5
T4 sequence (Q01959 whole entry): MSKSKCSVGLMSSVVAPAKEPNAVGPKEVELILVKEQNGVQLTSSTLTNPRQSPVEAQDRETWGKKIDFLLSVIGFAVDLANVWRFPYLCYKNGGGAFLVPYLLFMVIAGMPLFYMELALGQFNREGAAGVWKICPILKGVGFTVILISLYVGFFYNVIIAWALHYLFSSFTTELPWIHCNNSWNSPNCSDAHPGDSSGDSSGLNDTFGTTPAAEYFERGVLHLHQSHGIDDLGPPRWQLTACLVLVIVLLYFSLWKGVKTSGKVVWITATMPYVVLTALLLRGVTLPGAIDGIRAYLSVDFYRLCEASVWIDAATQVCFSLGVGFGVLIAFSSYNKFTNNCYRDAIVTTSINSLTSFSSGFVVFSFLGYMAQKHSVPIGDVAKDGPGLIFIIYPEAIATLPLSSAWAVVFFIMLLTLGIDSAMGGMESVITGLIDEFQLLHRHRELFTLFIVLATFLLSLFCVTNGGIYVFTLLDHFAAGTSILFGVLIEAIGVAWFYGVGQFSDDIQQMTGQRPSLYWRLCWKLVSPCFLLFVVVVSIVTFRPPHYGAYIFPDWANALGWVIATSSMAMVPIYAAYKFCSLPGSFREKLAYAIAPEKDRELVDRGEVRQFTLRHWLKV

D2 receptor [3] = molecular target: T2, D2 receptor; experiment: cell-based; conditions: read-out: D2 Antagonist activity IC50
[4] = molecular target: T4, human dopamine transporter (hDAT); experiment: cell-based; conditions: for Discrimination Ratios (DR) [3H]DA reuptake/DAT binding: Table 6; for IC50: Reuptake Inhibition [3H]DA IC50, Table 6
5-HT1A receptor = molecular target: T5, 5-HT1A receptor (Homo sapiens, UniProt P08908); experiment: 5-HT1A receptor binding, HA7 cells, [3H]8-OH-DPAT
T5 construct: expressed in transfected cells; host or cells: HA7 cells
T5 sequence (P08908 1-422): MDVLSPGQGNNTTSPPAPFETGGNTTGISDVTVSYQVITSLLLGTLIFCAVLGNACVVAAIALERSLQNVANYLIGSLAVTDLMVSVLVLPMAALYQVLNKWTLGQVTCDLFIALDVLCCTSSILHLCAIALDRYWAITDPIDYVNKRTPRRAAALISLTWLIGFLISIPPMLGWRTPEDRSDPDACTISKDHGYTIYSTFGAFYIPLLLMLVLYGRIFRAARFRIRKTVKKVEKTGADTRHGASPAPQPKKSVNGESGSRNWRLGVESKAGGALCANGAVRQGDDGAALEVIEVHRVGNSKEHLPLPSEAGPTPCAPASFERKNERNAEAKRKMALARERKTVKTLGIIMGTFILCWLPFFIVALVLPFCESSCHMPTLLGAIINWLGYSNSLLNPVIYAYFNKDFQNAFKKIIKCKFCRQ

D3 receptor [5] = molecular target: T6, D3 receptor (Homo sapiens, UniProt P35462); experiment: Inhibition of quinpirole-stimulated mitogenesis ([3H]thymidine incorporation), CHOp-D3 cells; assay type: cell-based
T6 construct: expressed in transfected cells; host or cells: CHOp- cells (CHOp-D3)
T6 sequence (P35462 whole entry): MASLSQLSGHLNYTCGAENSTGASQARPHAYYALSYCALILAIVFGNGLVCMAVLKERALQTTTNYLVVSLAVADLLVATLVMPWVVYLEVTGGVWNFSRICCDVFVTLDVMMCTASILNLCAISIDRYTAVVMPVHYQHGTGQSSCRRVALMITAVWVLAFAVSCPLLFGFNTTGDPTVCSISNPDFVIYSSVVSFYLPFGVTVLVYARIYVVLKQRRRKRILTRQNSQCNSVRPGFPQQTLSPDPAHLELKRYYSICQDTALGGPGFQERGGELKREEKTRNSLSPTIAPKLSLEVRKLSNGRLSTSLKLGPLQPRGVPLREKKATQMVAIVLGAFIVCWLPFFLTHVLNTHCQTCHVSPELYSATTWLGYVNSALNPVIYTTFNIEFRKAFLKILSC

D3 receptor [6] = molecular target: T6, D3 receptor; experiment: D3 receptor binding, CHOp- cells, [3H]YM-09151-2
D1 receptor = molecular target: T7, D1 receptor (Homo sapiens, UniProt P21728); experiment: D1 receptor binding, LHD1 cells, [3H]SCH 23,390
T7 construct: expressed in transfected cells; host or cells: LHD1 cells
T7 sequence (P21728 whole entry): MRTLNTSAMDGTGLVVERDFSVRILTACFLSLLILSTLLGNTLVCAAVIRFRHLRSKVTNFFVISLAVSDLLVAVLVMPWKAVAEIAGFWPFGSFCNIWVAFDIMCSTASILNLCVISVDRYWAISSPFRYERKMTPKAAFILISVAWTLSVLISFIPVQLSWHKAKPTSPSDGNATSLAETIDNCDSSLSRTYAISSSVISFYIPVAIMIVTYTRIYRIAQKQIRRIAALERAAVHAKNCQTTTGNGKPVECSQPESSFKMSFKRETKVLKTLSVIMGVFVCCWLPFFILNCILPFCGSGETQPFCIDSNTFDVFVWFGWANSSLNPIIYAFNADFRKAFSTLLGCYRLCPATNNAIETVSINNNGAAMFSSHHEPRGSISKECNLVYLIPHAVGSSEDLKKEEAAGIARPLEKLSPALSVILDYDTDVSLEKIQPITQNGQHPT

[7] = molecular target: T8, human serotonin transporter (hSERT) (Homo sapiens, UniProt P31645); experiment: cell-based; conditions: Reuptake Inhibition [3H]5-HT IC50, Table 6
T8 sequence (P31645 whole entry): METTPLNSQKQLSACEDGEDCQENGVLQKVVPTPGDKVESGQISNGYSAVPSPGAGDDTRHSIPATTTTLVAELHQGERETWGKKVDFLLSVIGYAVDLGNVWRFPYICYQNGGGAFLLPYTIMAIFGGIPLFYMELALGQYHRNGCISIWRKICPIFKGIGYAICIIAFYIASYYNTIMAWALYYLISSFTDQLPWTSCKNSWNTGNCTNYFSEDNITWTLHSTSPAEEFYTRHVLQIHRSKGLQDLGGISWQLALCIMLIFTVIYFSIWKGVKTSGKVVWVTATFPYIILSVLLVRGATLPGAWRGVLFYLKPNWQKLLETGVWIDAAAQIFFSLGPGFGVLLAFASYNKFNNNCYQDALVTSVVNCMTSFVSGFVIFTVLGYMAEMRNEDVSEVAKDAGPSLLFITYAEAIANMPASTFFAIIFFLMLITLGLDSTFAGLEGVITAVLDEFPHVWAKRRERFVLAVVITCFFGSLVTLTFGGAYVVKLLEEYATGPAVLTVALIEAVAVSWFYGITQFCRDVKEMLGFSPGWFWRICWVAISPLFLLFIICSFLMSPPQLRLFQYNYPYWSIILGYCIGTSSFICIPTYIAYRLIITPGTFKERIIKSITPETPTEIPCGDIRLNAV

[8] = molecular target: T9, human norepinephrine transporter (hNET) (Homo sapiens, UniProt P23975); experiment: cell-based; conditions: Table 6; read-out: Reuptake Inhibition [3H]NE IC50
T9 sequence (P23975 whole entry): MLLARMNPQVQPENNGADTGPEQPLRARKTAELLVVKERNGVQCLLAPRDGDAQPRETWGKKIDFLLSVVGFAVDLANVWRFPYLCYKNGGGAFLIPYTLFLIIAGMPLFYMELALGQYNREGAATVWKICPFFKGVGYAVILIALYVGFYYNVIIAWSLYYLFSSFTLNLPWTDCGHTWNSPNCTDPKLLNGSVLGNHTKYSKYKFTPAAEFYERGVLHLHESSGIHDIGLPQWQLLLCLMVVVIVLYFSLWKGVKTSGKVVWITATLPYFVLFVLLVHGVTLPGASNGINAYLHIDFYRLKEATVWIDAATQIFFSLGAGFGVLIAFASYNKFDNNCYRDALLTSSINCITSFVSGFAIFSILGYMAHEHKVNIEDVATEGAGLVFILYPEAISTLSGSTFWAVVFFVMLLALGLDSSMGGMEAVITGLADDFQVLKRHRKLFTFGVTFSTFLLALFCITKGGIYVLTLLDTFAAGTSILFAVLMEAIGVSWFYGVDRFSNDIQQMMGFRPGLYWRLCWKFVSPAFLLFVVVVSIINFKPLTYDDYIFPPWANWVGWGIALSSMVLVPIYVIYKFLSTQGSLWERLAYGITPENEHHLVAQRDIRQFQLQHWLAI

[9] = molecular target: T9, human norepinephrine transporter (hNET); experiment: biochemical; conditions: Table 5; [125I]RTI-55; oxalate salts; read-out: NET binding affinity Ki
[10] = molecular target: T8, human serotonin transporter (hSERT); experiment: biochemical; conditions: Table 5; [125I]RTI-55; oxalate salts; read-out: SERT binding affinity Ki
male Swiss-Webster mice = experiment: Cocaine/compound interaction study on locomotor activity; assay type: in vivo, mouse; conditions: 20 mg/kg of cocaine
[11] = Table 7, CHOp- cells, [3H]YM-09151-2, read-out: D2 Affinity Ki
[12] = Table 7, rat receptors, NIH-3T3-GF6 cells, [3H]ketanserin, read-out: 5-HT2A Affinity Ki
[13] = Table 7, CHOp- cells, [3H]YM-09151-2, read-out: D3 Affinity Ki
[14] = Table 7, LHD1 cells, [3H]SCH 23,390, read-out: D1 Affinity Ki

O=C(c1ccccc1)N1CCN(CCCCOC(c2ccc(F)cc2)c2ccc(F)cc2)CC1 (as salt: oxalate) [Compound 40, 1-Benzoyl-4-[1-[bis(4-fluorophenyl)methoxy]-4-butyl]piperazine]
melting point: 121 to 123 °C

Fc1ccc(C(OCCCCN2CCN(c3ccc(Cl)cc3)CC2)c2ccc(F)cc2)cc1 (as salt: oxalate) [Compound 34, 1-(4-Chlorophenyl)-4-[4-[bis(4-fluorophenyl)methoxy]butyl]piperazine]
melting point: 179 to 181 °C

O=C1CN(CCCCOC(c2ccc(F)cc2)c2ccc(F)cc2)CCN1 (as salt: oxalate) [Compound 27, 2-Oxo-4-[4-[bis(4-fluorophenyl)methoxy]butyl]piperazine]
melting point: 120 to 123 °C

Fc1ccc(C(OCCCCN2CCN(c3ccccc3)CC2)c2ccc(F)cc2)cc1 (as salt: oxalate) [Compound 29, 1-Phenyl-4-[4-[bis(4-fluorophenyl)methoxy]butyl]piperazine]
melting point: 185 to 187 °C

Fc1ccc(C(OCCCCN2CCN(c3ccccc3)CC2)c2ccc(F)cc2)cc1 [Compound 29, 1-Phenyl-4-[4-[bis(4-fluorophenyl)methoxy]butyl]piperazine]
Ki (5-HT2C receptor; Table 7, bound given in μM, read-out: 5-HT2C Affinity Ki): > 10 µM
Ki (D2 receptor [1]; [11]): 447 ± 73.9 nM
Ki (5-HT2A receptor; [12]): 404 ± 52.6 nM
Binding Ratios NET/DAT [2]: 3.3
Binding Ratios SERT/DAT [2]: 0.8
IC50 (D2 receptor [3]): 120 nM
Discrimination Ratios (DR) [3H]DA reuptake/DAT binding [4]: 23.2
Ki (5-HT1A receptor): 285 ± 76.4 nM
IC50 (D3 receptor [5]): 44.6 nM
Ki (D3 receptor [6]; [13]): 242 ± 7.41 nM
Ki (D1 receptor; [14]): 2430 ± 367 nM

O=C(c1ccccc1)N1CCN(CCCCOC(c2ccc(F)cc2)c2ccc(F)cc2)CC1 [Compound 40, 1-Benzoyl-4-[1-[bis(4-fluorophenyl)methoxy]-4-butyl]piperazine]
Ki (5-HT2C receptor; Table 7, rat receptors, [3H]mesulergine, read-out: 5-HT2C Affinity Ki): 4.64 ± 0.586 µM
Ki (D2 receptor [1]; [11]): 95.5 ± 19.7 nM
Ki (5-HT2A receptor; [12]): 4800 ± 2090 nM
Ki [2]: 19.7 ± 2.5 nM
Binding Ratios NET/DAT [2]: 18.5
Binding Ratios SERT/DAT [2]: 4.4
IC50 (D2 receptor [3]): 183 nM
IC50 [7]: 2170 ± 370 nM
IC50 [4]: 640 ± 240 nM
Discrimination Ratios (DR) [3H]DA reuptake/DAT binding [4]: 32.5
Ki (5-HT1A receptor): 1560 ± 271 nM
IC50 [8]: 32 ± 10 nM
Ki [9]: 365 ± 69 nM
IC50 (D3 receptor [5]): 222 nM
Ki (D3 receptor [6]; [13]): 119 ± 49.8 nM
Ki (D1 receptor; [14]): 6640 ± 313 nM
Ki [10]: 87 ± 43 nM

COc1ccccc1N1CCN(CCCCOC(c2ccc(F)cc2)c2ccc(F)cc2)CC1 (as salt: oxalate) [Compound 35, 1-(2-Methoxyphenyl)-4-[4-[bis(4-fluorophenyl)methoxy]butyl]piperazine]
melting point: 139 to 142 °C

Fc1ccc(C(OCCCCN2CCN(Cc3ccc4c(c3)OCO4)CC2)c2ccc(F)cc2)cc1 (as salt: oxalate) [Compound 41, 1-Benzo[1,3]dioxol-5-ylmethyl-4-[4-[bis(4-fluorophenyl)methoxy]butyl]piperazine]
melting point: 231 to 234 °C

Fc1ccc(C(OCCCCN2CCN(c3ccc(Cl)cc3)CC2)c2ccc(F)cc2)cc1 [Compound 34, 1-(4-Chlorophenyl)-4-[4-[bis(4-fluorophenyl)methoxy]butyl]piperazine]
Ki (5-HT2C receptor): > 10 µM
Ki (D2 receptor [1]): > 10000 nM
Ki (5-HT2A receptor): 1150 ± 44.2 nM
Binding Ratios NET/DAT [2]: 7.6
Binding Ratios SERT/DAT [2]: 0.7
Discrimination Ratios (DR) [3H]DA reuptake/DAT binding [4]: 23.4
Ki (5-HT1A receptor): > 10000 nM
IC50 (D3 receptor [5]): 2.55 nM
antagonistic activity at D3 site (D3 receptor [5]; Table 7): selective and strong antagonistic activity
Ki (D3 receptor [6]): 340 ± 143 nM
Ki (D1 receptor): > 10000 nM

Fc1ccc(C(OCCCCN2CCN(c3ccccc3F)CC2)c2ccc(F)cc2)cc1 (as salt: oxalate) [Compound 30, 1-(2-Fluorophenyl)-4-[4-[bis(4-fluorophenyl)methoxy]butyl]piperazine]
melting point: 156 to 158 °C

COc1ccccc1N1CCN(CCCCOC(c2ccc(F)cc2)c2ccc(F)cc2)CC1 [Compound 35, 1-(2-Methoxyphenyl)-4-[4-[bis(4-fluorophenyl)methoxy]butyl]piperazine]
Ki (5-HT2C receptor): 3 ± 0.0731 µM
Ki (D2 receptor [1]): 134 ± 21.7 nM
Ki (5-HT2A receptor): 698 ± 204 nM
Ki [2]: 26.2 ± 2.5 nM
Binding Ratios NET/DAT [2]: 3.5
Binding Ratios SERT/DAT [2]: 9.7
IC50 (D2 receptor [3]): 84.4 nM
Attenuation of cocaine-induced LMA (male Swiss-Webster mice): Attenuation
IC50 [7]: 1230 ± 24 nM
IC50 [4]: 301 ± 16 nM
Discrimination Ratios (DR) [3H]DA reuptake/DAT binding [4]: 11.5
Ki (5-HT1A receptor): 34.9 ± 6.7 nM
binding for 5-HT1A (5-HT1A receptor; Table 7): moderate binding
IC50 [8]: 176 ± 79 nM
Ki [9]: 92 ± 11 nM
IC50 (D3 receptor [5]): 56.7 nM
Ki (D3 receptor [6]): 118 ± 31.9 nM
Ki (D1 receptor): 777 ± 185 nM
Ki [10]: 255 ± 89 nM
